Assay results published in patent US10844015B2, “Pyridine dicarboxamide derivatives as bromodomain inhibitors” (GlaxoSmithKline Intellectual Property (No. 2) Limited, priority 2016, dated 2020).

Legend:
[1] = system: BRD4 BD2 over BRD4 BD1; experiment: Calculation of selectivity for BRD4 BD2 over BRD4 BD1 from the TR-FRET assays; format: binding, Human; conditions: for selectivity for BRD4 BD2 over BRD4 BD1: BRD4 BD2 pIC50 − BRD4 BD1 pIC50, in at least one of the TR-FRET assays; for fold selective for BRD4 BD2 over BRD4 BD1: stated from the log unit selectivity
Protocol: (§1) The competition of the compounds of formula (I) with Reference Compound X for binding to the BET family (BRD2, BRD3, BRD4 and BRDT) was assessed using protein truncates spanning both bromodomain 1 (BD1) and bromodomain 2 (BD2). In order to monitor differential binding to either BD1 or BD2, single residue mutations of key tyrosines to alanine were made in the acetyl lysine binding pockets. To validate this approach, a double residue mutant tandem domain protein was produced for each of the BET family members. Utilising a Fluorescence Polarisation approach, binding affinities for each of the single and double mutants for Reference Compound X were determined.
(§2) All assay components were dissolved in an assay buffer composing of 50 mM HEPES pH7.4, 50 mM NaCl, 5% Glycerol, 1 mM DTT and 1 mM CHAPS. […] The solution containing bromodomain and Reference Compound X was added to dose response dilutions of test compound or DMSO vehicle (a maximum of 0.5% DMSO is used in this assay) in Greiner 384 well black low volume microtitre plates and subsequently incubated for 30 minutes at room temperature. An equal volume of 3 nM of anti-6*His Europium chelate was added to all wells, followed by a further 30 minute incubation at room temperature. TR-FRET was detected using a Perkin Elmer Multimode plate reader, by exciting the donor fluorophore at λ337 nm and subsequently, after a delay of 50 μsecs, measuring emission of the donor and acceptor fluorophores at λ615 nm and λ665 nm, respectively. In order to control these assays, 16 replicates each of uninhibited (DMSO vehicle) and inhibited (10*IC50 concentrations of Example 11 of WO 2011/054846A1) TR-FRET assays were included on every microtitre plate.
(§3) All compounds (Examples) were each tested in the BRD4 BD1 and the BRD4 BD2 TR-FRET assays essentially as described above. Those of skill in the art will recognise that in vitro binding assays and cell-based assays for functional activity are subject to experimental variability. Accordingly, it is to be understood that the pIC50 values given below are exemplary only. pIC50 values are expressed as log10 units.
Calculation of Selectivity for BRD4 BD2 Over BRD4 BD1
Selectivity for BRD4 BD2 over BRD4 BD1 was calculated as follows: Selectivity=BRD4BD2pIC50−BRD4BD1pIC50

[2] = target: T1, BRD4 BD2 (Homo sapiens, UniProt O60885, Y97A); experiment: BRD4 BD2 TR-FRET competition assay; format: binding; conditions: single mutant tandem BRD4 protein; for IC50: read-out: pIC50 in the BRD4 BD2 assay (converted)
T1 construct: BRD4 (1-477) (Y97A) and (Y390A); made in house; host or cells: E. coli (pET15b vector)
Protocol: Time Resolved Fluorescence Resonance Energy Transfer (TR-FRET) Assay
Bromodomain binding was assessed utilising a time resolved fluorescent resonance energy transfer (TR-FRET) competition assay. To enable this approach a known, high affinity, pan-BET interacting small molecule was labelled with Alexa Fluor® 647, which is a far-red-fluorescent dye (Reference Compound X). Reference Compound X acts as a reporter of bromodomain binding and is the acceptor fluorophore component of the TR-FRET pair. Europium chelate, conjugated to an anti-6*His antibody, was utilised as the donor fluorophore in the TR-FRET pair. […] A TR-FRET signal is generated when the donor and acceptor fluorophores are in close proximity, between 20-80 Å, which is enabled in this assay by binding of Reference Compound X to the bromodomain protein.
In order to generate a TR-FRET signal, donor fluorophore is excited by a laser at A337 nm, which subsequently leads to emission at A618 nm. If the acceptor fluorophore is in close proximity then energy transfer can occur, which leads to emission of Alexa Fluor® 647 at A665 nm. In the presence of competitor compound, Reference Compound X can be displaced from binding to the bromodomain. If displacement occurs, the acceptor fluorophore is no longer in proximity to the donor fluorophore, which prevents fluorescent energy transfer and, subsequently, a loss of Alexa Fluor® 647 emission at λ665 nm.
as §1
Final purification was completed by Superdex 200 prep grade size exclusion column. Purified protein was stored at −80° C. in 20 mM HEPES pH 7.5 and 100 mM NaCl.
Protocol for Bromodomain BRD2, 3, 4 and T, BD1+BD2 Mutant TR-FRET Competition Assays:
as §2
cA four parameter curve fit of the following form was then applied: y=a+((b−a)/(1+(10^x/10^c)^d) • Where ‘a’ is the minimum, ‘b’ is the Hill slope, ‘c’ is the pIC50 and ‘d’ is the maximum.
as §3

[3] = system: BET family (BRD2, BRD3, BRD4 and BRDT) tandem bromodomain proteins; experiment: Fluorescence Polarisation binding affinities of single and double mutant tandem BET proteins for Reference Compound X; parameters: species or system Human
Protocol: as §1, with “determined. […] The affinities of the single mutated bromdomain tandem proteins for Reference Compound X were equi-potent with the corresponding non-mutated BET protein. […] In the TR-FRET competition assay, Reference Compound X is used at a concentration that is equivalent to the Kd for the non-mutated bromodomain, which ensures that no binding at the mutated bromodomain is detected.” for “determined.”
Recombinant Human Bromodomains [(BRD2 (1-473) (Y113A) and (Y386A), BRD3 (1-435) (Y73A) and (Y348A) BRD4 (1-477) (Y97A) and (Y390A) and BRDT (1-397) (Y66A) and (Y309A)] were expressed in E. coli cells (in pET15b vector for BRD2/3/4 and in pET28a vector for BRDT) with a 6-His tag at the N-terminal. The His-tagged Bromodomain pellet was resuspended in 50 mM HEPES (pH7.5), 300 mM NaCl, 10 mM imidazole & 1 μL/mL protease inhibitor cocktail and extracted from the E. coli cells using sonication and purified using a nickel sepharose high performance column, the proteins were washed and then eluted with a linear gradient of 0-500 mM imidazole with buffer 50 mM HEPES (pH7.5), 150 mM NaCl, 500 mM imidazole, over 20 column volumes. Final purification was completed by Superdex 200 prep grade size exclusion column. Purified protein was stored at −80° C. in 20 mM HEPES pH 7.5 and 100 mM NaCl. Protein identity was confirmed by peptide mass fingerprinting and predicted molecular weight confirmed by mass spectrometry.

Row | Compound | IC50 [2] [nM] | selectivity for BRD4 BD2 over BRD4 BD1 [1] [log unit] | fold selective for BRD4 BD2 over BRD4 BD1 [1] | other results
1 | CNC(=O)c1cc(C(=O)N[C@H]2C[C@@H]2C)cc(Cc2cncc3[nH]ccc23)n1 [Example 46, 6-((1H-Pyrrolo[2,3-c]pyridin-4-yl)methyl)-N^2-methyl-N^4-((1S,2S)-2-methylcyclopropyl)pyridine-2,4-dicarboxamide] | 79.4 | 2.8 | at least 100 fold | –
2 | CNC(=O)c1cc(C(=O)NC2CC2C)cc(C(C)c2cncc3[nH]ccc23)n1 [Example 49, 6-((S*-1-(1H-Pyrrolo[2,3-c]pyridin-4-yl)ethyl)-N^2-methyl-N^4 ((1S,2S)-2-methylcyclopropyl)pyridine-2,4-dicarboxamide] | 12.6 | 2.8 | at least 100 fold | –
3 | COc1ccc2c(c1)C(c1ccc(Cl)cc1)=N[C@@H](CC(=O)NCCCCCNC(=O)CCCCCC1(C)/C(=C/C=C/C=C/C3=[N+](CCCCS(=O)(=O)O)c4ccc(S(=O)(=O)O)cc4C3(C)C)N(CCCCS(=O)(=O)[O-])c3ccc(S(=O)(=O)O)cc31)c1nnc(C)n1-2 (stereo partly drawn) [Reference Compound X] | – | – | – | reduction in Kd (affinity) of double mutant tandem proteins in comparison to wild type tandem BET proteins ([3]; double residue (Tyr to Ala) mutant tandem domain proteins): > 1000 fold; reduction of Kd of the interaction between the mutated bromodomain and Reference Compound X ([3]; single mutation of Tyrosine to Alanine): > 1000 fold; affinity of single mutated bromodomain tandem proteins versus corresponding non-mutated BET protein ([3]; single residue (Tyr to Ala) mutants): equi-potent
4 | CNC(=O)c1cc(C(=O)N[C@H]2C[C@@H]2C)cc(C(OC)c2ccnc3[nH]ccc23)n1 (relative stereo) [Example 106, 6-((R*-Methoxy(1H-pyrrolo[2,3-b]pyridin-4-yl)methyl)-N^2 methyl-N^4-((1S,2S)-2-methylcyclopropyl)pyridine-2,4-dicarboxamide] | – | – | at least 1000 fold | pIC50 in the BRD4 BD2 assay [2]: 7.6 log10 units

More lines, main results first:

Row | IC50 [2] [nM] | Compound | selectivity for BRD4 BD2 over BRD4 BD1 [1] [log unit] | fold selective for BRD4 BD2 over BRD4 BD1 [1] | other results
5 | 31.6 | CNC(=O)c1cc(C(=O)N[C@H]2C[C@@H]2C)cc(Cc2cccc3c2CCN3)n1 [Example 83, 6-(indolin-4-ylmethyl)-N^2-methyl-N^4-((1S,2S)-2-methylcyclopropyl)pyridine-2,4-dicarboxamide] | 2.9 | at least 100 fold | –
6 | 1000 to 10000 | CNC(=O)c1cc(C(=O)NC2CC2)cc([C@@H](O)c2ccccc2C)n1 (single isomer, unassigned) [Example 116, (S*)-N^4-cyclopropyl-6-(hydroxy(o-tolyl)methyl)-N^2-methylpyridine-2,4-dicarboxamide] | – | – | –
7 | 1000 to 10000 | CNC(=O)c1cc(C(=O)N[C@H]2C[C@@H]2C)cc(Cn2ccccc2=O)n1 [Example 54, N^2-Methyl-N^4-((1S,2S)-2-methylcyclopropyl)-6-((2-oxopyridin-1(2H)-yl)methyl)pyridine-2,4-dicarboxamide] | – | – | –
8 | 39.8 | CNC(=O)c1cc(C(=O)N[C@H]2C[C@@H]2C)cc(Cc2ccnc3[nH]ccc23)n1 [Example 80, 6-((1H-Pyrrolo[2,3-b]pyridin-4-yl)methyl)-N^2-methyl-N^4-((1S,2S)-2-methylcyclopropyl)pyridine-2,4-dicarboxamide] | – | at least 1000 fold | –
